Measurements reported in the supplement of paper PMC10307832.

Columns and labels:
Experiment in all cases: relative viability (nuclei count vs DMSO), 5 days (fraction); higher = more cells survive
Erlotinib + OSI-027 = compound: C#Cc1cccc(Nc2ncnc3cc(OCCOC)c(OCCOC)cc23)c1 [Erlotinib] + COc1cccc2cc(-c3nc([C@H]4CC[C@H](C(=O)O)CC4)n4ncnc(N)c34)[nH]c12 [OSI-027] (partner 0.5 µM)
How it was run: (§1)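 Lung cancer cell lines in 1536-well plates got either a single drug or a fixed anchor-drug dose together with five library-drug doses (not always all listed) in √10 steps, by pin tool, on the day after seeding. Nuclei were counted after 5 days, and relative viability is the treated-to-vehicle ratio of nuclei counts. Values are medians of duplicate plates.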

Erlotinib + Pictilisib = compound: C#Cc1cccc(Nc2ncnc3cc(OCCOC)c(OCCOC)cc23)c1 [Erlotinib] + CS(=O)(=O)N1CCN(Cc2cc3nc(-c4cccc5[nH]ncc45)nc(N4CCOCC4)c3s2)CC1 [Pictilisib] (partner 1 µM)
How it was run: as §1

Erlotinib + Dasatinib = compound: C#Cc1cccc(Nc2ncnc3cc(OCCOC)c(OCCOC)cc23)c1 [Erlotinib] + Cc1nc(Nc2ncc(C(=O)Nc3c(C)cccc3Cl)s2)cc(N2CCN(CCO)CC2)n1 [Dasatinib] (partner 0.075 µM)
How it was run: as §1

AT9283 + Alpelisib = compound: O=C(Nc1c[nH]nc1-c1nc2ccc(CN3CCOCC3)cc2[nH]1)NC1CC1 [AT9283] + Cc1nc(NC(=O)N2CCC[C@H]2C(N)=O)sc1-c1ccnc(C(C)(C)C(F)(F)F)c1 [Alpelisib] (partner 2 µM)
How it was run: as §1

AT9283 + Phenformin = compound: O=C(Nc1c[nH]nc1-c1nc2ccc(CN3CCOCC3)cc2[nH]1)NC1CC1 [AT9283] + N=C(N)NC(=N)NCCc1ccccc1 [Phenformin] (partner 250 µM)
How it was run: as §1

Cell Line | relative viability (Erlotinib + OSI-027; first compound 0.02 µM) | relative viability (Erlotinib + OSI-027; first compound 0.2 µM) | relative viability (Erlotinib + OSI-027; first compound 0.6325 µM) | relative viability (Erlotinib + OSI-027; first compound 2 µM) | relative viability (Erlotinib + Pictilisib; first compound 0.02 µM) | relative viability (Erlotinib + Pictilisib; first compound 0.2 µM) | relative viability (Erlotinib + Pictilisib; first compound 0.6325 µM) | relative viability (Erlotinib + Pictilisib; first compound 2 µM) | relative viability (Erlotinib + Dasatinib; first compound 0.02 µM) | relative viability (Erlotinib + Dasatinib; first compound 0.6325 µM) | relative viability (Erlotinib + Dasatinib; first compound 2 µM) | relative viability (AT9283 + Alpelisib; first compound 0.003 µM) | relative viability (AT9283 + Alpelisib; first compound 0.03 µM) | relative viability (AT9283 + Alpelisib; first compound 0.09487 µM) | relative viability (AT9283 + Alpelisib; first compound 0.3 µM) | relative viability (AT9283 + Phenformin; first compound 0.003 µM) | relative viability (AT9283 + Phenformin; first compound 0.03 µM) | relative viability (AT9283 + Phenformin; first compound 0.09487 µM) | relative viability (AT9283 + Phenformin; first compound 0.3 µM) | relative viability (Erlotinib + Dasatinib; first compound 0.2 µM)
NCI-H23 | 0.769 | 0.519 | 0.509 | 0.407 | 0.56 | 0.517 | 0.61 | 0.464 | 0.876 | 0.928 | 0.698 | 0.707 | 0.668 | 0.396 | 0.168 | 0.811 | 0.744 | 0.413 | 0.297 | 
NCI-H322M | 0.533 | 0.483 | 0.406 | 0.394 | 0.456 | 0.499 | 0.347 | 0.365 | 0.231 | 0.257 | 0.238 | 0.846 | 0.906 | 0.544 | 0.396 | 0.65 | 0.486 | 0.414 | 0.387 | 0.246
NCI-H358 | 0.82 | 0.458 | 0.407 | 0.152 | 0.319 | 0.313 | 0.303 | 0.28 | 0.174 | 0.133 | 0.171 | 0.901 | 0.171 | 0.163 | 0.152 | 0.309 | 0.1 | 0.0619 | 0.0785 | 0.129
NCI-H460 |  | 0.547 | 0.469 | 0.217 | 0.351 | 0.335 | 0.412 | 0.353 | 0.486 | 0.5 | 0.432 | 0.516 | 0.43 | 0.0573 | 0.017 | 0.517 | 0.508 | 0.0947 | 0.0363 | 0.51
NCI-H520 | 0.282 | 0.387 | 0.271 | 0.226 | 0.262 | 0.279 | 0.335 | 0.298 | 0.188 | 0.245 | 0.234 | 1.01 | 0.338 | 0.274 | 0.239 | 0.572 | 0.284 | 0.243 | 0.174 | 0.186
NCI-H596 | 0.675 | 0.528 | 0.537 | 0.408 | 0.383 | 0.478 | 0.383 | 0.351 | 0.634 | 0.538 | 0.472 | 0.508 | 0.509 | 0.531 | 0.496 | 0.743 | 0.82 | 0.608 | 0.564 | 0.565
NCI-H647 | 0.594 | 0.606 |  | 0.449 | 0.445 | 0.359 | 0.499 | 0.46 | 0.274 | 0.221 | 0.144 | 1.11 | 0.355 | 0.128 | 0.124 | 0.525 | 0.305 | 0.145 | 0.0997 | 0.117
NCI-H650 | 0.506 | 0.594 | 0.515 | 0.405 | 0.963 | 0.942 | 0.904 | 0.936 | 0.38 | 0.526 | 0.425 | 1 | 0.951 | 0.252 | 0.162 | 0.366 | 0.436 | 0.223 | 0.165 | 0.456
NCI-H661 | 0.748 | 0.707 | 0.655 | 0.443 | 0.333 |  | 0.416 | 0.294 | 0.912 | 0.735 | 0.443 | 0.627 | 0.427 | 0.329 | 0.36 | 0.276 | 0.269 | 0.252 | 0.236 | 0.693
NCI-H727 | 0.768 | 0.584 | 0.461 | 0.52 | 0.456 | 0.344 | 0.346 | 0.339 | 0.308 | 0.295 | 0.322 | 0.669 | 0.434 | 0.313 | 0.235 | 0.39 | 0.447 | 0.298 | 0.39 | 
NCI-H838 | 0.421 | 0.474 | 0.359 | 0.319 | 0.471 | 0.454 | 0.503 | 0.477 | 0.29 | 0.288 | 0.317 | 1.06 | 0.367 | 0.262 | 0.269 | 0.564 | 0.23 | 0.165 | 0.17 | 0.308
NCI-H1355 | 0.382 | 0.387 | 0.325 | 0.296 | 0.499 | 0.392 | 0.407 | 0.312 | 0.701 | 0.666 | 0.472 | 0.855 | 0.898 | 0.443 | 0.182 | 0.478 | 0.449 | 0.362 | 0.238 | 0.571
NCI-H1395 | 0.677 | 0.712 | 0.615 | 0.629 | 0.71 | 0.638 | 0.567 | 0.733 | 0.405 | 0.411 | 0.408 | 1 | 0.804 | 0.409 | 0.431 | 0.391 | 0.43 | 0.316 | 0.321 | 0.442
NCI-H1437 | 0.856 | 0.919 | 0.832 | 0.716 | 0.431 | 0.408 | 0.482 | 0.347 | 0.357 | 0.46 | 0.339 | 0.997 | 0.88 | 0.571 | 0.155 | 0.294 | 0.263 | 0.149 | 0.127 | 0.433
NCI-H1563 | 0.768 | 0.867 | 0.801 | 0.663 | 0.63 | 0.706 | 0.679 | 0.636 | 0.38 | 0.427 | 0.382 | 1.08 | 0.81 | 0.732 | 0.628 | 0.638 | 0.663 | 0.605 | 0.556 | 0.522
NCI-H1651 | 0.628 | 0.698 |  | 0.482 | 0.511 | 0.628 | 0.662 | 0.5 | 0.37 | 0.469 | 0.387 | 1.01 | 0.921 | 0.689 | 0.399 | 0.293 | 0.358 | 0.277 | 0.219 | 0.39
NCI-H1666 | 0.83 | 0.741 | 0.624 | 0.565 | 0.466 | 0.329 | 0.317 | 0.267 |  | 0.828 | 0.64 | 1.04 | 0.736 | 0.363 | 0.291 | 0.587 | 0.516 | 0.404 | 0.35 | 0.759
NCI-H1734 | 0.621 | 0.586 | 0.608 | 0.504 | 0.494 | 0.474 | 0.542 |  | 0.574 | 0.473 | 0.428 | 0.696 | 0.497 | 0.283 | 0.292 | 0.334 | 0.278 | 0.243 | 0.203 | 0.482
NCI-H1755 | 0.757 | 0.776 | 0.786 | 0.619 | 0.422 | 0.456 | 0.416 | 0.374 | 0.451 | 0.386 | 0.433 | 0.996 | 0.874 | 0.35 | 0.381 | 0.579 | 0.626 | 0.394 | 0.422 | 0.409
NCI-H1792 | 0.728 | 0.561 | 0.586 | 0.362 | 0.305 | 0.183 | 0.269 | 0.21 | 0.875 | 0.981 | 0.608 | 0.633 | 0.82 | 0.565 | 0.242 |  | 0.255 | 0.333 | 0.148 | 0.655
NCI-H1793 | 0.281 | 0.225 | 0.235 | 0.156 | 0.272 | 0.386 | 0.306 | 0.302 | 0.342 | 0.392 | 0.272 | 0.642 | 0.871 | 0.363 | 0.254 | 0.301 | 0.352 | 0.138 | 0.219 | 0.249
NCI-H1915 | 0.651 | 0.713 | 0.679 | 0.55 |  |  | 1.07 | 0.948 | 0.338 | 0.327 | 0.273 | 1.01 | 1.06 | 0.24 | 0.222 | 0.362 | 0.342 | 0.174 | 0.168 | 0.376
NCI-H1944 | 0.413 | 0.355 | 0.291 | 0.269 | 0.357 | 0.304 | 0.346 | 0.33 | 0.213 | 0.237 | 0.21 | 0.792 | 0.621 | 0.255 | 0.275 | 0.201 | 0.171 | 0.122 | 0.136 | 0.219
NCI-H1975 | 0.704 | 0.676 | 0.49 | 0.381 | 0.287 | 0.253 | 0.307 | 0.255 | 0.391 | 0.372 | 0.205 | 0.637 | 0.624 | 0.5 | 0.247 | 0.418 | 0.403 | 0.356 | 0.183 | 0.407
NCI-H1993 | 0.6 | 0.534 | 0.555 | 0.699 | 0.807 | 0.745 | 0.946 | 0.901 | 0.579 | 0.553 | 0.586 | 0.789 | 0.612 | 0.552 | 0.515 | 0.474 | 0.496 | 0.431 | 0.408 | 0.531
NCI-H2009 | 0.759 | 0.653 | 0.65 | 0.414 | 0.836 | 0.763 | 0.943 | 0.732 | 0.365 | 0.432 | 0.238 | 1.13 | 1.05 | 0.734 | 0.401 | 0.525 | 0.384 | 0.309 | 0.145 | 0.351
NCI-H2023 | 0.428 | 0.338 | 0.285 | 0.192 | 0.3 |  | 0.218 | 0.226 | 0.639 | 0.623 | 0.44 | 0.634 | 0.501 | 0.34 | 0.131 | 0.448 | 0.389 | 0.193 | 0.131 | 0.408
